Laboratory results reported in article PMC9575003 (Pharmacology, biochemistry, and behavior, 2016).

What was measured:
dopamine D4 receptor = dopamine D4 receptor (Homo sapiens, UniProt P21917); assay: Ki, apparently from the radioligand screening panel
[1] = molecular target: hSERT (serotonin transporter) (Homo sapiens, UniProt P31645); assay: in vitro binding affinity
[2] = molecular target: hNET (norepinephrine transporter) (Homo sapiens, UniProt P23975); assay: in vitro binding affinity
[3] = molecular target: hDAT (dopamine transporter) (Homo sapiens, UniProt Q01959); assay: in vitro binding affinity
Chain of hDAT (dopamine transporter) (Q01959 whole entry): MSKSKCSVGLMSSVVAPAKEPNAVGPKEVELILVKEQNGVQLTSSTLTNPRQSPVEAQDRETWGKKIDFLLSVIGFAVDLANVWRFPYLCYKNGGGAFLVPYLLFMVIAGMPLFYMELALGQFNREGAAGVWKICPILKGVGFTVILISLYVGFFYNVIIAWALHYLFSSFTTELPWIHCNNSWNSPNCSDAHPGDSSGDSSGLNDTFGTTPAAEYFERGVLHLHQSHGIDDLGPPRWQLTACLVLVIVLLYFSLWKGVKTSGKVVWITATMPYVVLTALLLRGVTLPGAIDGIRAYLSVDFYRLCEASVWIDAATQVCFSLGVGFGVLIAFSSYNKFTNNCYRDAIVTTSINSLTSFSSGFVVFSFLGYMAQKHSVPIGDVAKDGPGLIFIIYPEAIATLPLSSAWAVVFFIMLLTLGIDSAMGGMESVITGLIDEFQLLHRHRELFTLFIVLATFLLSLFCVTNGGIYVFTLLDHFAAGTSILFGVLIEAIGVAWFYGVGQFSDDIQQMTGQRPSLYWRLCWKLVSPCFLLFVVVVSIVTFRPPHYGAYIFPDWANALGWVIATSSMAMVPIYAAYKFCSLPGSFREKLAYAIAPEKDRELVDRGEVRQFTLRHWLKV

Chain of hNET (norepinephrine transporter) (P23975 whole entry): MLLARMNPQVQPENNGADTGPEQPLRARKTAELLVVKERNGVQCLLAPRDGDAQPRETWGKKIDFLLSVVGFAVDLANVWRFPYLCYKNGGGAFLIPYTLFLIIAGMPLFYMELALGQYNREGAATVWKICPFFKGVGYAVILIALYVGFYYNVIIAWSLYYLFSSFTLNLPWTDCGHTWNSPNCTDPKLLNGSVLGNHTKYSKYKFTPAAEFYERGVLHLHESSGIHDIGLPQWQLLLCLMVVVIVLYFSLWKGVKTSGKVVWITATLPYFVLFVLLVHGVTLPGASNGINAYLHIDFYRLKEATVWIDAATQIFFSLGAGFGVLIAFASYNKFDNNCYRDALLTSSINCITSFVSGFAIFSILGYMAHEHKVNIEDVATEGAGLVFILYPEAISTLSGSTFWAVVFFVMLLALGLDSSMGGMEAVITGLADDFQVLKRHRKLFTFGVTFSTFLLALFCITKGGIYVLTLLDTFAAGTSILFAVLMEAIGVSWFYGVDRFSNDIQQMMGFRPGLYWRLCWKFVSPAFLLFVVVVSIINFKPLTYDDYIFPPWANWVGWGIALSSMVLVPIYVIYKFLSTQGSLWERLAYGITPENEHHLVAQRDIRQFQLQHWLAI
Chain of hSERT (serotonin transporter) (P31645 whole entry): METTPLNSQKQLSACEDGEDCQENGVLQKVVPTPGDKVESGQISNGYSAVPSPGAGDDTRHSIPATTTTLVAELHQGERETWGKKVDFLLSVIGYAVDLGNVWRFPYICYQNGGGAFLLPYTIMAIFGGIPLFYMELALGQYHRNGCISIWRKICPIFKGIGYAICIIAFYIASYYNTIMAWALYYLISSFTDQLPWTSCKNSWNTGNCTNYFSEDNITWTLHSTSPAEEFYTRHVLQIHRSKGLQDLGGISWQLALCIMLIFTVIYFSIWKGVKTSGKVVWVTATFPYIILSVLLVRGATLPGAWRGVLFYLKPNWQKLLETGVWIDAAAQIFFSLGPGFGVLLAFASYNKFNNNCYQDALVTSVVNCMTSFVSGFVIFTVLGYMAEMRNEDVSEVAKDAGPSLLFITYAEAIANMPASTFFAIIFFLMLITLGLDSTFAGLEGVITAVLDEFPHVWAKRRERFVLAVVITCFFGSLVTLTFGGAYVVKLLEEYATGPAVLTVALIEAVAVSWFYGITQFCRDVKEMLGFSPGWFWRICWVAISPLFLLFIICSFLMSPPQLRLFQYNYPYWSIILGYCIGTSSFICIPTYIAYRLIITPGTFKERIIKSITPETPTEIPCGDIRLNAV
Chain of dopamine D4 receptor (P21917 whole entry): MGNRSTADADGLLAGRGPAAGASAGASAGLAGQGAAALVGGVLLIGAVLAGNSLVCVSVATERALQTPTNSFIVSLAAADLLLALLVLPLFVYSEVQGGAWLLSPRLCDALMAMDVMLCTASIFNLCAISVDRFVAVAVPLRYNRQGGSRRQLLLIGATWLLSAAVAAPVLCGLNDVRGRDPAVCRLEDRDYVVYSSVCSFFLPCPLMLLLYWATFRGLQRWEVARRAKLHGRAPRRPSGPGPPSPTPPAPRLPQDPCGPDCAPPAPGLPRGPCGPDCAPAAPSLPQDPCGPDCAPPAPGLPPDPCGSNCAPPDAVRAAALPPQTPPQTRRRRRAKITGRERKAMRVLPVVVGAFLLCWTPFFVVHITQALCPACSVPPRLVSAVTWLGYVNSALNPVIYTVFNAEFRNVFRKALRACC

Compound `C[C@@H](CN1CCC(Cc2ccccc2)CC1)C(O)c1ccc(O)cc1` (stereo partly shown) [MI-4, Ro-25-6981] has a Ki (dopamine D4 receptor) of 120 nM, a Ki [1] of 670 nM and a Ki [2] of 365 nM. It also gave a Ki [3] of 3460 nM.
